Experimental data as given in ChEMBL document CHEMBL2073889, “ATP-dependent transport of beta-estradiol 17-(beta-D-glucuronide) in rat canalicular membrane vesicles” (Am J Physiol, 1996).

Target: Multidrug resistance protein 1a (Rattus norvegicus) (UniProt Q6PSM0)
Assay: TP_TRANSPORTER: uptake, inhibited by C219 antibody in bile canalicular membrane vesicles from SD rat
Format: functional, cell membranes
Settings: Sprague-Dawley, Bile canalicular membrane vesicle

Sequence of Multidrug resistance protein 1a (Rattus norvegicus) (Q6PSM0 as listed by the source): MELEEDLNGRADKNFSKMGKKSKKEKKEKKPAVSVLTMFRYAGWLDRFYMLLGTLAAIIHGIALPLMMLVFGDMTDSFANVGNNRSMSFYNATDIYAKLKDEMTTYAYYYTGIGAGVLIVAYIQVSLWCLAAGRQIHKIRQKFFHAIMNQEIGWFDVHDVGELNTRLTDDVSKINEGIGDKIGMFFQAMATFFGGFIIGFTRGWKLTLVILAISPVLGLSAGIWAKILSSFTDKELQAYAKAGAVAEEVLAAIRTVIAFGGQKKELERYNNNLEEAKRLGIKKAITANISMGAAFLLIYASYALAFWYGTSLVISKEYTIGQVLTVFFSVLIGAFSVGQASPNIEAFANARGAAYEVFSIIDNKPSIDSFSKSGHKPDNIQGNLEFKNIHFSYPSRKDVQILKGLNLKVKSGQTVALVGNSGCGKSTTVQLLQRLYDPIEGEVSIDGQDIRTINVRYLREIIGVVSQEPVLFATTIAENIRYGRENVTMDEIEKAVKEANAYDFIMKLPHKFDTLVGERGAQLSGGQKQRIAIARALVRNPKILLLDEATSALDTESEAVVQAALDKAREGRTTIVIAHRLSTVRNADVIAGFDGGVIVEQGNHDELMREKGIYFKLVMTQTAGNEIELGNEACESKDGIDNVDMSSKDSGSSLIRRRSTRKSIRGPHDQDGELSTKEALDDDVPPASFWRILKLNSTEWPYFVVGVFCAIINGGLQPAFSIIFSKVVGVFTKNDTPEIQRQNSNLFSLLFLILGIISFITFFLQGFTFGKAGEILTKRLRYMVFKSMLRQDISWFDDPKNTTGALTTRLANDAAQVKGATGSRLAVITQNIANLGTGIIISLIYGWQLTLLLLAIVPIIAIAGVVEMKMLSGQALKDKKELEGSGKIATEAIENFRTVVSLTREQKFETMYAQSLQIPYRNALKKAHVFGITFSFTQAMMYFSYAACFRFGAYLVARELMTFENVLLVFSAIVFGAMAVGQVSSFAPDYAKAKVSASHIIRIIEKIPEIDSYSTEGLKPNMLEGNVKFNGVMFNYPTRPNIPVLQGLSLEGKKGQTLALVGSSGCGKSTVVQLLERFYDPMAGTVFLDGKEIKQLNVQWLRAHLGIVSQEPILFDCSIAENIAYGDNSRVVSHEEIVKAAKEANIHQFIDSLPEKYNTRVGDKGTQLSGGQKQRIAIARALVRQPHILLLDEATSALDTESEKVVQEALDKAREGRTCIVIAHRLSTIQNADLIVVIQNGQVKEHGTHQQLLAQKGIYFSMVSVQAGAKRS

SMILES: C[C@]12CC[C@@H]3c4ccc(O)cc4CC[C@H]3[C@@H]1CC[C@@H]2O[C@@H]1O[C@H](C(=O)O)[C@@H](O)[C@H](O)[C@H]1O
- Activity: substrate [+]
